Assay results reported in patent publication US8293738B2, “Indazole inhibitors of kinase” (Abbott Laboratories, priority 2010, dated 2012).

Legend:
[1] = molecular target: T1, Aurora A (Homo sapiens, UniProt O14965); assay: Aurora A enzyme assay (time-resolved fluorescence, STK substrate-2); type: biochemical; conditions: 1 mM ATP, 1 hour
T1 sequence (O14965 1-403): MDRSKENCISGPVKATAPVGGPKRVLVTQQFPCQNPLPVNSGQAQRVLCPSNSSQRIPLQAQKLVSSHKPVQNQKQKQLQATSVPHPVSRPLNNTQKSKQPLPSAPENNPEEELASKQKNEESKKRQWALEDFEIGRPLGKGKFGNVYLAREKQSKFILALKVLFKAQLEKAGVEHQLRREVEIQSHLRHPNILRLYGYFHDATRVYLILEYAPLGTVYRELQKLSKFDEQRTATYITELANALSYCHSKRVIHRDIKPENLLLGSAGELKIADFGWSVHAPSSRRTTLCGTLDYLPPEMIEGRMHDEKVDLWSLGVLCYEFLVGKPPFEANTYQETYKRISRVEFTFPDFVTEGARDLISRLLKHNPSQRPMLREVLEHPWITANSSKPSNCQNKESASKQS
Protocol: To determine Aurora A and C activity of representative compounds of the invention, Active Aurora A or C enzyme was incubated in wells of a 384 well plate with biotinylated STK substrate-2 (Upstate), 1 mM ATP, and various concentrations of inhibitors in a Hepes buffer, pH 7.4 containing MgCl2, sodium othrovanadate, and Triton X-100. After 1 hour, the reaction was stopped with EDTA and anti-phospho-STK antibody Europium Cryptate (Upstate) and SA-XL665 (Upstate) were added to detect the phosphopeptide. The amount of phosphorylation was determined by the time-resolved fluorescence ratio of signals at 665 nm and 615 nm. The IC50s were calculated by an exponential fit of the inhibition values with the inhibitor concentrations using Assay Explorer software.

[2] = molecular target: KDR (Homo sapiens, UniProt P35968); assay: KDR HTRF in vitro kinase assay; type: biochemical; design: purified enzyme (His6-KDR 789-1354, MW 63 kD); conditions: 1 mM ATP, 60 minutes
Protocol: To determine the activity of the various kinases, a homogenous time-resolved fluorescence (HTRF) in vitro kinase assay was used. (Mathis, G., HTRF(R) Technology. J Biomol Screen, 1999. 4(6): p. 309-314; Alfred J. Kolb, Paul V. Kaplita, David J. Hayes, Young-Whan Park, Christine Pernell, John S. Major and Gerard Mathis, Drug Discovery Today, 1998, 3, 333-342.)
For example for KDR, 7 ng/well of purified enzyme (His6-KDR 789-1354, MW 63 kD) was mixed with 0.5 μM N-biotinylated substrate (Biotin-Ahx-AEEEYFFLA-amide (SEQ. ID. 1)), various concentrations of inhibitor in reaction buffer (50 mM HEPES, pH 7.1, mM MgCl2, 2 mM MnCl2, 0.1% BSA and 1 mM DTT, […] final volume), ATP (1 mM final conc.) in a black 384-well plate. After 60 minutes incubation at room temperature, the reaction was quenched by addition of a buffered EDTA solution (final approximate concentrations: 30 mM EDTA, 0.1% BSA, 0.1% Triton X-100 and 0.24M KF) and a solution of revelation agents (to give 0.084 ng/well streptavidin-XL-665 (Cis-Bio) and 6.5 ng/well antiphsophotyrosine mAb PT66-K Europium kryptate) was added to the reaction mixture. The quenched reaction was allowed to stand at room temperature for 3 hours and was then read in a time-resolved fluorescence detector (InVision, Perkin-Elmer) at 620 nm and 665 nm sequentially with excitation. The ratio between the signal of 620 nm and 665 nm was used in the calculation of the IC50.

[3] = molecular target: T2, Aurora B (Homo sapiens, UniProt Q96GD4); assay: Aurora B enzyme assay (time-resolved fluorescence, histone H3 peptide); type: biochemical; conditions: 1 mM ATP, 1 hour
T2 construct: Active Aurora B enzyme (recombinant residues 1-344)
Protocol: To determine Aurora B activity of representative compounds of the invention, Active Aurora B enzyme (recombinant residues 1-344) and INCENP (recombinant GST fusion protein (Upstate)) were incubated in wells of a 384 well plate with biotinylted histone H3 peptide residues 1-21 (Upstate), 1 mM ATP, and various concentrations of inhibitors in a HEPES buffer, pH 7.4 containing MgCl2, sodium othrovanadate, and Triton X-100. After 1 hour, the reaction was stopped with EDTA and anti-phospho-histone H3 Europium Cryptate (Cis-Bio) and SA-APC (Phycolink, Prozyme) were added to detect the phosphopeptide. The amount of phosphorylation was determined by the time-resolved fluorescence ratio of signals at 665 nm and 615 nm. The IC50's were calculated by an exponential fit of the inhibition values with the inhibitor concentrations using Assay Explorer software.

[4] = test system: H1299 cells (Human Non-Small Cell Lung Carcinoma); assay: Induction of polyploidy in H1299 cells, high content analysis; type: cell-based; conditions: NCI-H1299 cells, 48 hours, polyploid = nuclear area >750μ2, read-out: Polyploid HCA IC50
Protocol: To determine the induction of polyploidy in H1299 cells (Human Non-Small Cell Lung Carcinoma), NCI-H1299 were seeded (4K/well) into 96-well culture plates (tissue culture grade, black, flat-clear bottom) and incubated overnight to produce cell-to-plate adherance Inhibitors at varying concentrations were added into duplicate wells containing cells and culture media (RPMI 1640, 10% fetal calf serum) and incubated at 37 C for 48 hours. The plates were then washed with PBS and the adherent cells fixed by incubating with 3% formalin for 1 hour. After washing four times with PBS, the cells were then stained with Hoechst and subjected to fluorescent (3601/460e) microscopic high content analysis to determine the effect of inhibitors on nuclear size. Polyploid cells (>4N) were defined as those having nuclear area >750μ2. […]

Sequence of KDR (P35968 789-1354): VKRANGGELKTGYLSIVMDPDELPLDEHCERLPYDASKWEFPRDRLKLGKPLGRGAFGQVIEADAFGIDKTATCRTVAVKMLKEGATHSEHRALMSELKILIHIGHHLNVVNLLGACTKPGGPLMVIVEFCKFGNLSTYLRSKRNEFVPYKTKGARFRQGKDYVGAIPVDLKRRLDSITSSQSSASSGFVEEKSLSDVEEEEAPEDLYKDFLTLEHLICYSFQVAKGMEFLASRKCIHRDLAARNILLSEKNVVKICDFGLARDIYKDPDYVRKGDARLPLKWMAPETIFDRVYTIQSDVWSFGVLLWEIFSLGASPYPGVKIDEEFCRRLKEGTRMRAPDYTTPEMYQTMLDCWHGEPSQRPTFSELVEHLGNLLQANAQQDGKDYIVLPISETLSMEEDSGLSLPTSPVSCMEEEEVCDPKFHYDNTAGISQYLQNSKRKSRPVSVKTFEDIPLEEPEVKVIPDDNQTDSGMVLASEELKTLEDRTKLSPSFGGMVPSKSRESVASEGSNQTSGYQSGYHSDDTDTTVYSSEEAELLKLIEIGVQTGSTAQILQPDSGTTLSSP
T2 sequence (Q96GD4 whole entry, the tested form may be a part): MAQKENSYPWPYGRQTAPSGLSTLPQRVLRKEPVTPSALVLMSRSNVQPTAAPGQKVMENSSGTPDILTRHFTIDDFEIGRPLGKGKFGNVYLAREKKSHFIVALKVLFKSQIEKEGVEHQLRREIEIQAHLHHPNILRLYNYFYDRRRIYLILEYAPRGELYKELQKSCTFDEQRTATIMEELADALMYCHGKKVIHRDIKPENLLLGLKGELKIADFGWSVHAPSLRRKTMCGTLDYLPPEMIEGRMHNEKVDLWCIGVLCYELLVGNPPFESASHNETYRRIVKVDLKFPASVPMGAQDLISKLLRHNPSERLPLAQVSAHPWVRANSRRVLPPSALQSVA
T2 sequence (Q9NQS7 826-918 partner limits assumed): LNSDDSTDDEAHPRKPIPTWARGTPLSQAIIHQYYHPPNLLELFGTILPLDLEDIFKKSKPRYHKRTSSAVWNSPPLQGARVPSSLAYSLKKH

Compound	IC50 [1]	IC50 [2]	IC50 [3]	IC50 [4]
O=C(Nc1ccc(-c2ccc3c(-c4cnn(CCO)c4)n[nH]c3c2)cc1)Nc1cccc(C(F)(F)F)c1 [Example 11, N-(4-{3-[1-(2-hydroxyethyl)-1H-pyrazol-4-yl]-1H-indazol-6-yl}phenyl)-N′-[3-(trifluoromethyl)phenyl]urea]	> 12500 nM	20.7 nM	136 nM	
Cc1cccc(NC(=O)Nc2ccc(-c3ccc4c(-c5ccccc5)n[nH]c4c3)cc2)c1 [Example 32, N-(3-methylphenyl)-N′-[4-(3-phenyl-1H-indazol-6-yl)phenyl]urea]	> 12500 nM	3610 nM	1920 nM	
Cn1cc(-c2n[nH]c3cc(-c4ccc(CNC(=O)Nc5cccc(F)c5)cc4)ccc23)cn1 [Example 24, N-(3-fluorophenyl)-N′-{4-[3-(1-methyl-1H-pyrazol-4-yl)-1H-indazol-6-yl]benzyl}urea]	> 12500 nM	> 12500 nM	1030 nM	
Cn1nccc1-c1n[nH]c2cc(-c3ccc(NC(=O)Nc4cccc(F)c4)cc3)ccc12 [Example 14, N-(3-fluorophenyl)-N′-{4-[3-(1-methyl-1H-pyrazol-5-yl)-1H-indazol-6-yl]phenyl}urea]	> 12500 nM	> 12500 nM	> 12500 nM	
Cc1cccc(NC(=O)Nc2ccc(-c3ccc4c(-c5cc6ccccc6[nH]5)n[nH]c4c3)cc2)c1 [Example 36, N-{4-[3-(1H-indol-2-yl)-1H-indazol-6-yl]phenyl}-N′-(3-methylphenyl)urea]	> 12500 nM	303 nM	> 12500 nM	
Cc1cccc(NC(=O)Nc2ccc(-c3ccc4c(-c5cnn(CCN6CCOCC6)c5)n[nH]c4c3)cc2)c1 [Example 5, N-(3-methylphenyl)-N′-(4-{3-[1-(2-morpholin-4-ylethyl)-1H-pyrazol-4-yl]-1H-indazol-6-yl}phenyl)urea]	> 12500 nM	31.7 nM	194 nM	
Cn1cc(-c2n[nH]c3cc(-c4ccc(NC(=O)Nc5ccccc5C(F)(F)F)cc4)ccc23)cn1 [Example 26, N-{4-[3-(1-methyl-1H-pyrazol-4-yl)-1H-indazol-6-yl]phenyl}-N′-[2-(trifluoromethyl)phenyl]urea]	> 12500 nM	325 nM	62.3 nM	13 nM
Cc1cccc(NC(=O)Nc2ccc(-c3ccc4c(-c5cccnc5)n[nH]c4c3)cc2)c1 [Example 33, N-(3-methylphenyl)-N′-[4-(3-pyridin-3-yl-1H-indazol-6-yl)phenyl]urea]	> 12500 nM	584 nM	120 nM	
Cn1cc(-c2n[nH]c3cc(-c4ccc(NC(=O)Nc5ccc(OC(F)(F)F)cc5)cc4)ccc23)cn1 [Example 28, N-{4-[3-(1-methyl-1H-pyrazol-4-yl)-1H-indazol-6-yl]phenyl}-N′-[4-(trifluoromethoxy)phenyl]urea]	> 12500 nM	38 nM	871 nM	
Cc1cccc(NC(=O)Nc2cccc(-c3ccc4c(-c5cnn(C)c5)n[nH]c4c3)c2)c1 [Example 17, N-(3-methylphenyl)-N′-{3-[3-(1-methyl-1H-pyrazol-4-yl)-1H-indazol-6-yl]phenyl}urea]	> 12500 nM	48.8 nM	1320 nM	
Cc1cccc(NC(=O)Nc2ccc(-c3ccc4c(-c5ccsc5)n[nH]c4c3)cc2)c1 [Example 7, N-(3-methylphenyl)-N′-[4-(3-thien-3-yl-1H-indazol-6-yl)phenyl]urea]	> 12500 nM	12300 nM	> 12500 nM	

The next lines start with the values.

IC50 [1]	IC50 [2]	IC50 [3]	IC50 [4]	Compound
> 12500 nM	30.2 nM	493 nM		Cn1cc(-c2n[nH]c3cc(-c4ccc(NC(=O)Nc5cccc(OC(F)(F)F)c5)cc4)ccc23)cn1 [Example 25, N-{4-[3-(1-methyl-1H-pyrazol-4-yl)-1H-indazol-6-yl]phenyl}-N′-[3-(trifluoromethoxy)phenyl]urea]
> 12500 nM	278 nM	> 12500 nM		Cc1cccc(NC(=O)Nc2cccc(-c3ccc4c(-c5cccnc5)n[nH]c4c3)c2)c1 [Example 34, N-(3-methylphenyl)-N′-[3-(3-pyridin-3-yl-1H-indazol-6-yl)phenyl]urea]
> 12500 nM	97.6 nM	773 nM		Cn1cc(-c2n[nH]c3cc(-c4ccc(NC(=O)Nc5ccccc5OC(F)(F)F)cc4)ccc23)cn1 [Example 27, N-{4-[3-(1-methyl-1H-pyrazol-4-yl)-1H-indazol-6-yl]phenyl}-N′-[2-(trifluoromethoxy)phenyl]urea]
5210 nM	1790 nM	142 nM		Cn1cc(-c2n[nH]c3cc(-c4ccc(CNC(=O)c5cccc(F)c5)cc4)ccc23)cn1 [Example 31, 3-fluoro-N-{4-[3-(1-methyl-1H-pyrazol-4-yl)-1H-indazol-6-yl]benzyl}benzamide]
> 12500 nM	23.7 nM	156 nM		Cn1cc(-c2n[nH]c3cc(-c4ccc(NC(=O)Nc5cccc(C(F)(F)F)c5)cc4)ccc23)cn1 [Example 18, N-{4-[3-(1-methyl-1H-pyrazol-4-yl)-1H-indazol-6-yl]phenyl}-N′-[3-(trifluoromethyl)phenyl]urea]
> 12500 nM	558 nM	569 nM		Cc1cccc(NC(=O)Nc2ccc(-c3ccc4c(-c5cscn5)n[nH]c4c3)cc2)c1 [Example 35, N-(3-methylphenyl)-N′-{4-[3-(1,3-thiazol-4-yl)-1H-indazol-6-yl]phenyl}urea]
> 12500 nM	6690 nM	142 nM		CC(C)(O)Cn1cc(-c2n[nH]c3cc(-c4ccc(NC(=O)Nc5cccc(F)c5)cc4)ccc23)cn1 [Example 15, N-(3-fluorophenyl)-N′-(4-{3-[1-(2-hydroxy-2-methylpropyl)-1H-pyrazol-4-yl]-1H-indazol-6-yl}phenyl)urea]
1460 nM	291 nM	207 nM		Cc1cccc(NC(=O)Nc2ccc(-c3ccc4c(-c5ccc[nH]5)n[nH]c4c3)cc2)c1 [Example 4, N-(3-methylphenyl)-N′-{4-[3-(1H-pyrrol-2-yl)-1H-indazol-6-yl]phenyl}urea]
10900 nM	217 nM	86.4 nM		CCCn1cc(-c2n[nH]c3cc(-c4ccc(NC(=O)Nc5cccc(F)c5)cc4)ccc23)cn1 [Example 13, N-(3-fluorophenyl)-N′-{4-[3-(1-propyl-1H-pyrazol-4-yl)-1H-indazol-6-yl]phenyl}urea]
